Reference: patent US9809587B2, “Pesticidally active heterocyclic derivatives with sulphur containing substituents” (Syngenta Participations AG, priority 2014, dated 2017)

Legend:
Format in all cases: in vivo
[1] = test system: Diabrotica balteata (Corn Root Worm); test: Diabrotica balteata (corn root worm), sprayed maize sprouts; conditions: 96 h, application rate of 200 ppm, L2 larvae on maize sprouts, 4 days after infestation
Description: Example B2: Diabrotica balteata (Corn Root Worm)
Maize sprouts, placed on an agar layer in 24-well microtiter plates were treated with aqueous test solutions prepared from 10′000 ppm DMSO stock solutions by spraying. After drying, the plates were infested with L2 larvae (6 to 10 per well). The samples were assessed for mortality and growth inhibition in comparison to untreated samples 4 days after infestation.

[2] = test system: Euschistus heros (Neotropical Brown Stink Bug); test: Euschistus heros (neotropical brown stink bug), sprayed soybean leaf; conditions: 120 h, application rate of 200 ppm, N-2 nymphs on soybean leaf, 5 days after infestation
Description: Example B3: Euschistus heros (Neotropical Brown Stink Bug)
Soybean leaf on agar in 24-well microtiter plates were sprayed with aqueous test solutions prepared from 10′000 ppm DMSO stock solutions. After drying the leaf were infested with N-2 nymphs. The samples were assessed for mortality in comparison to untreated samples 5 days after infestation.

[3] = test system: Myzus persicae (Green Peach Aphid); test: Myzus persicae (green peach aphid), sprayed sunflower leaf discs; conditions: foliar, 144 h, application rate of 200 ppm, mixed ages on sunflower leaf discs, 6 days after infestation
Description: Example B4: Myzus persicae (Green Peach Aphid)
(§1) Sunflower leaf discs were placed on agar in a 24-well microtiter plate and sprayed with aqueous test solutions prepared from 10′000 ppm DMSO stock solutions. After drying, the leaf discs were infested with an aphid population of mixed ages. The samples were assessed for mortality 6 days after infestation.

[4] = test system: Myzus persicae (Green Peach Aphid); test: Myzus persicae (green peach aphid), roots of pea seedlings in test solution; conditions: 144 h, test rate of 24 ppm, roots of infested pea seedlings in test solution, 6 days
Description: Example B5: Myzus persicae (Green Peach Aphid)
Roots of pea seedlings infested with an aphid population of mixed ages were placed directly in the aqueous test solutions prepared from 10′000 DMSO stock solutions. The samples were assessed for mortality 6 days after placing seedlings in test solutions.

[5] = test system: Plutella xylostella (Diamond Back Moth); test: Plutella xylostella (diamond back moth), treated artificial diet; conditions: 120 h, application rate of 200 ppm, L2 larvae on artificial diet, 5 days after infestation, read-out: effect in at least one of the two categories (mortality or growth inhibition)
Description: Example B6: Plutella xylostella (Diamond Back Moth)
24-well microtiter plates with artificial diet were treated with aqueous test solutions prepared from 10′000 ppm DMSO stock solutions by pipetting. After drying, the plates were infested with L2 larvae (10 to 15 per well). The samples were assessed for mortality and growth inhibition in comparison to untreated samples 5 days after infestation.
The following compounds gave an effect of at least 80% in at least one of the two categories (mortality or growth inhibition) at an application rate of 200 ppm: […]

[6] = test system: Bemisia tabaci (Cotton White Fly); test: Bemisia tabaci (cotton white fly), sprayed cotton leaf discs; conditions: foliar, 144 h, application rate of 200 ppm, adult white flies on cotton leaf discs, 6 days after incubation
Description: Example B1: Bemisia tabaci (Cotton White Fly)
Cotton leaf discs were placed on agar in 24-well microtiter plates and sprayed with aqueous test solutions prepared from 10′000 ppm DMSO stock solutions. After drying the leaf discs were infested with adult white flies. The samples were checked for mortality 6 days after incubation.

[7] = test system: Spodoptera littoralis (Egyqptian Cotton Leaf Worm); test: Spodoptera littoralis (Egyptian cotton leaf worm), sprayed cotton leaf discs; conditions: foliar, 72 h, application rate of 200 ppm, L1 larvae on cotton leaf discs, 3 days after infestation
Description: Example B7: Spodoptera littoralis (Egyqptian Cotton Leaf Worm)
Cotton leaf discs were placed on agar in 24-well microtiter plates and sprayed with aqueous test solutions prepared from 10′000 ppm DMSO stock solutions. After drying the leaf discs were infested with five L1 larvae. The samples were assessed for mortality, anti-feedant effect, and growth inhibition in comparison to untreated samples 3 days after infestation. Control of Spodoptera littoralis by a test sample is when at least one of mortality, anti-feedant effect, and growth inhibition is higher than the untreated sample.

[8] = test system: Spodoptera littoralis (Egyqptian Cotton Leaf Worm); test: Spodoptera littoralis (Egyptian cotton leaf worm), compound in agar taken up by lettuce roots; conditions: 144 h, test rate of 12.5 ppm, uptake by lettuce roots from agar, 6 days after infestation, read-out: effect in at least one of the three categories (mortality, anti-feedancy, or growth inhibition)
Excerpt: Example B8: Spodoptera littoralis (Egyqptian Cotton Leaf Worm)
Test compounds were applied by pipette from 10′000 ppm DMSO stock solutions into 24-well plates and mixed with agar. Lettuce seeds were placed on the agar and the multi well plate was closed by another plate which contains also agar. After 7 days the roots have absorbed the compound and the lettuce has grown into the lid plate. The lettuce leafs were now cut off into the lid plate. Spodoptera eggs were pipetted through a plastic stencil on a humid gel blotting paper and the plate closed with it. The samples were assessed for mortality, anti-feedant effect and growth inhibition in comparison to untreated samples 6 days after infestation.
The following compounds gave an effect of at least 80% in at least one of the three categories (mortality, anti-feedancy, or growth inhibition) at a test rate of 12.5 ppm: […]

[9] = test system: Frankliniella occidentalis (Western Flower Thrips); test: Frankliniella occidentalis (western flower thrips), sprayed sunflower leaf discs; conditions: foliar, 168 h, application rate of 200 ppm, mixed ages on sunflower leaf discs, 7 days after infestation
Description: Example B11: Frankliniella occidentalis (Western Flower Thrips)
as §1, with “in” for “in a”, “plates” for “plate”, “[…]” for “10′000 ppm”, “drying” for “drying,”, “a Frankliniella” for “an aphid”, “7” for “6”

CCS(=O)(=O)c1cc(-c2cncc(Cl)c2)cnc1-c1nc2cc(C(F)(F)F)ncc2n1C [Compound P3]
≥ 80%: mortality at 200 ppm [1] | mortality at 200 ppm [2] | mortality at 200 ppm [3] | mortality at 24 ppm [4] | percent effect (mortality or growth inhibition) at 200 ppm [5]

CCS(=O)(=O)c1cc(-c2cnn(C)c2)cnc1-c1nc2cc(C(F)(F)F)ncc2n1C [Compound P6]
≥ 80%: mortality at 200 ppm [6] | mortality at 200 ppm [1] | mortality at 200 ppm [2] | mortality at 200 ppm [3] | mortality at 24 ppm [4] | percent effect (mortality or growth inhibition) at 200 ppm [5] | percent control (mortality, anti-feedant effect or growth inhibition) at 200 ppm [7] | percent control (mortality, anti-feedancy or growth inhibition) at 12.5 ppm [8]

CCS(=O)(=O)c1cc(-c2cnc(OC)nc2)cnc1-c1nc2cc(C(F)(F)F)ncc2n1C [Compound P9]
≥ 80%: mortality at 200 ppm [3] | mortality at 24 ppm [4] | percent effect (mortality or growth inhibition) at 200 ppm [5] | percent control (mortality, anti-feedant effect or growth inhibition) at 200 ppm [7]

CCS(=O)(=O)c1cc(-c2ncc(C)cn2)cnc1-c1nc2cc(C(F)(F)F)ncc2n1C [Compound P22]
≥ 80%: mortality at 200 ppm [6] | mortality at 200 ppm [1] | mortality at 200 ppm [2] | mortality at 200 ppm [3] | mortality at 24 ppm [4] | percent effect (mortality or growth inhibition) at 200 ppm [5] | percent control (mortality, anti-feedant effect or growth inhibition) at 200 ppm [7] | percent control (mortality, anti-feedancy or growth inhibition) at 12.5 ppm [8]

CCS(=O)(=O)c1cc(-n2ccccc2=O)cnc1-c1nc2cc(C(F)(F)F)ncc2n1C [Compound P26]
≥ 80%: mortality at 200 ppm [1] | mortality at 200 ppm [2] | mortality at 200 ppm [3] | mortality at 24 ppm [4] | percent effect (mortality or growth inhibition) at 200 ppm [5]

CCS(=O)(=O)c1cc(-c2ncccc2Cl)cnc1-c1nc2cc(C(F)(F)F)ncc2n1C [Compound P32]
≥ 80%: mortality at 200 ppm [1] | mortality at 200 ppm [2] | mortality at 200 ppm [3] | percent effect (mortality or growth inhibition) at 200 ppm [5] | percent control (mortality, anti-feedant effect or growth inhibition) at 200 ppm [7] | percent control (mortality, anti-feedancy or growth inhibition) at 12.5 ppm [8] | mortality at 200 ppm [9]

CCS(=O)(=O)c1cc(-c2ccnnc2)cnc1-c1nc2cc(C(F)(F)F)ncc2n1C [Compound P33]
≥ 80%: mortality at 200 ppm [6] | mortality at 200 ppm [1] | mortality at 200 ppm [2] | mortality at 200 ppm [3] | mortality at 24 ppm [4]

CCS(=O)(=O)c1cc(-c2cccn3ncnc23)cnc1-c1nc2cc(C(F)(F)F)ncc2n1C [Compound P34]
≥ 80%: mortality at 200 ppm [1] | mortality at 200 ppm [2] | mortality at 200 ppm [3] | mortality at 24 ppm [4] | percent effect (mortality or growth inhibition) at 200 ppm [5] | percent control (mortality, anti-feedant effect or growth inhibition) at 200 ppm [7]

CCS(=O)(=O)c1cc(-c2cnc3nc(C)ccn23)cnc1-c1nc2cc(C(F)(F)F)ncc2n1C [Compound P37]
≥ 80%: mortality at 200 ppm [1] | mortality at 200 ppm [2] | mortality at 200 ppm [3] | mortality at 24 ppm [4] | percent effect (mortality or growth inhibition) at 200 ppm [5]

CCS(=O)(=O)c1cc(-c2ccnc(C)c2)cnc1-c1nc2cc(C(F)(F)F)ncc2n1C [Compound P53]
≥ 80%: mortality at 200 ppm [2] | mortality at 200 ppm [3] | mortality at 24 ppm [4] | percent effect (mortality or growth inhibition) at 200 ppm [5] | percent control (mortality, anti-feedant effect or growth inhibition) at 200 ppm [7] | percent control (mortality, anti-feedancy or growth inhibition) at 12.5 ppm [8]

CCS(=O)(=O)c1cc(-c2cnc(N)nc2C)cnc1-c1nc2cc(C(F)(F)F)ncc2n1C [Compound P58]
≥ 80%: mortality at 200 ppm [1] | mortality at 200 ppm [2] | mortality at 200 ppm [3] | mortality at 24 ppm [4] | percent effect (mortality or growth inhibition) at 200 ppm [5]

CCS(=O)(=O)c1cc(-c2cncs2)cnc1-c1nc2cc(C(F)(F)F)ncc2n1C [Compound P60]
≥ 80%: mortality at 200 ppm [1] | mortality at 200 ppm [2] | mortality at 200 ppm [3] | mortality at 24 ppm [4] | percent effect (mortality or growth inhibition) at 200 ppm [5] | percent control (mortality, anti-feedant effect or growth inhibition) at 200 ppm [7]

CCS(=O)(=O)c1cc(-c2ncncc2F)cnc1-c1nc2cc(C(F)(F)F)ncc2n1C [Compound P61]
≥ 80%: mortality at 200 ppm [1] | mortality at 200 ppm [2] | mortality at 200 ppm [3] | mortality at 24 ppm [4] | percent effect (mortality or growth inhibition) at 200 ppm [5] | percent control (mortality, anti-feedant effect or growth inhibition) at 200 ppm [7] | percent control (mortality, anti-feedancy or growth inhibition) at 12.5 ppm [8]

CCS(=O)(=O)c1cc(-c2cncc(C#N)c2)cnc1-c1nc2cc(C(F)(F)F)ncc2n1C [Compound P67]
≥ 80%: mortality at 200 ppm [6] | mortality at 200 ppm [1] | mortality at 200 ppm [2] | mortality at 200 ppm [3] | mortality at 24 ppm [4] | percent effect (mortality or growth inhibition) at 200 ppm [5]

CCS(=O)(=O)c1cc(-n2cccn2)cnc1-c1nc2cc(C(F)(F)F)ncc2n1C [Compound P84]
≥ 80%: mortality at 200 ppm [1] | mortality at 200 ppm [2] | mortality at 200 ppm [3] | mortality at 24 ppm [4] | percent effect (mortality or growth inhibition) at 200 ppm [5] | percent control (mortality, anti-feedant effect or growth inhibition) at 200 ppm [7] | percent control (mortality, anti-feedancy or growth inhibition) at 12.5 ppm [8]

CCS(=O)(=O)c1cc(-c2ccc(Cl)nc2)cnc1-c1nc2cc(C(F)(F)F)ncc2n1C [Compound P96]
≥ 80%: mortality at 200 ppm [6] | mortality at 200 ppm [1] | mortality at 200 ppm [2] | mortality at 200 ppm [3] | percent effect (mortality or growth inhibition) at 200 ppm [5] | percent control (mortality, anti-feedant effect or growth inhibition) at 200 ppm [7] | percent control (mortality, anti-feedancy or growth inhibition) at 12.5 ppm [8] | mortality at 200 ppm [9]

CCS(=O)(=O)c1cc(-n2ccc(C)n2)cnc1-c1nc2cc(C(F)(F)F)ncc2n1C [Compound P102]
≥ 80%: mortality at 200 ppm [1] | mortality at 200 ppm [2] | mortality at 200 ppm [3] | mortality at 24 ppm [4] | percent effect (mortality or growth inhibition) at 200 ppm [5] | percent control (mortality, anti-feedant effect or growth inhibition) at 200 ppm [7]

CCS(=O)(=O)c1cc(-c2nccc(OC)n2)cnc1-c1nc2cc(C(F)(F)F)ncc2n1C [Compound P104]
≥ 80%: mortality at 200 ppm [1] | mortality at 200 ppm [2] | mortality at 200 ppm [3] | percent effect (mortality or growth inhibition) at 200 ppm [5] | percent control (mortality, anti-feedant effect or growth inhibition) at 200 ppm [7] | percent control (mortality, anti-feedancy or growth inhibition) at 12.5 ppm [8] | mortality at 200 ppm [9]

CCS(=O)(=O)c1cc(-c2cc(OC)ccn2)cnc1-c1nc2cc(C(F)(F)F)ncc2n1C [Compound P109]
≥ 80%: mortality at 200 ppm [1] | mortality at 200 ppm [2] | mortality at 200 ppm [3] | mortality at 24 ppm [4] | percent effect (mortality or growth inhibition) at 200 ppm [5] | percent control (mortality, anti-feedant effect or growth inhibition) at 200 ppm [7]
